Like-named read-outs stand apart in the source and are kept apart here.
What was measured:
[1] = molecular target: T1, H3R-445 (Homo sapiens, UniProt Q9Y5N1); assay: cell-based; parameters: species or system HEK293-EPAC stably expressing H3R isoform; settings: for Emax: HEK293-EPAC stably expressing H3R isoform, read-out: H3R-445 α
[2] = molecular target: T2, H3R-415 (Homo sapiens, UniProt Q9Y5N1); assay: cell-based; parameters: species or system HEK293-EPAC stably expressing H3R isoform; settings: for Emax: HEK293-EPAC stably expressing H3R isoform, read-out: H3R-415 α
[3] = molecular target: T3, H3R-365 (Homo sapiens, UniProt Q9Y5N1); assay: cell-based; parameters: species or system HEK293-EPAC stably expressing H3R isoform; settings: for Emax: HEK293-EPAC stably expressing H3R isoform, read-out: H3R-365 α
[4] = molecular target: T4, H3R-453 (Homo sapiens, UniProt Q9Y5N1); assay: cell-based; parameters: species or system HEK293-EPAC stably expressing H3R isoform; settings: for H3R-453 α: relative to histamine, agonist; for Emax: HEK293-EPAC stably expressing H3R isoform, read-out: H3R-453 α
[5] = molecular target: T1, H3R-445; assay: cell-based; parameters: species or system HEK293-EPAC stably expressing H3R isoform; settings: for H3R-445 α: relative to histamine, agonist; for Emax: HEK293-EPAC stably expressing H3R isoform, read-out: H3R-445 α
[6] = molecular target: T2, H3R-415; assay: cell-based; parameters: species or system HEK293-EPAC stably expressing H3R isoform; settings: for H3R-415 α: relative to histamine, agonist; for Emax: HEK293-EPAC stably expressing H3R isoform, read-out: H3R-415 α
[7] = molecular target: T5, H3R-413 (Homo sapiens, UniProt Q9Y5N1, DEL274-305); assay: cell-based; parameters: species or system HEK293-EPAC stably expressing H3R isoform
[8] = molecular target: T5, H3R-413; assay: cell-based; parameters: species or system HEK293-EPAC stably expressing H3R isoform; settings: for H3R-413 α: relative to histamine, agonist; for Emax: HEK293-EPAC stably expressing H3R isoform, read-out: H3R-413 α
[9] = molecular target: T6, H3R-373 (Homo sapiens, UniProt Q9Y5N1, INS445KMKKKTCL); parameters: species or system HEK293-EPAC stably expressing H3R isoform; settings: agonist
[10] = molecular target: T6, H3R-373; assay: cell-based; parameters: species or system HEK293-EPAC stably expressing H3R isoform; settings: for H3R-373 α: relative to histamine, agonist; for Emax: HEK293-EPAC stably expressing H3R isoform, read-out: H3R-373 α
[11] = molecular target: T3, H3R-365; assay: cell-based; parameters: species or system HEK293-EPAC stably expressing H3R isoform; settings: for H3R-365 α: relative to histamine, agonist; for Emax: HEK293-EPAC stably expressing H3R isoform, read-out: H3R-365 α
[12] = molecular target: T6, H3R-373
[13] = molecular target: T5, H3R-413; assay: biochemical
[14] = molecular target: T2, H3R-415; assay: cell-based; parameters: species or system HEK293-EPAC stably expressing H3R isoform
[15] = molecular target: T6, H3R-373; parameters: species or system HEK293-EPAC stably expressing H3R isoform; settings: inverse agonism, constitutive signaling; antagonist
[16] = molecular target: T3, H3R-365; assay: cell-based; parameters: species or system HEK293-EPAC stably expressing H3R isoform
[17] = molecular target: T4, H3R-453; assay: cell-based; settings: HEK293-EPAC stably expressing H3R isoform, read-out: H3R-453 α
[18] = molecular target: T1, H3R-445; assay: cell-based; settings: HEK293-EPAC stably expressing H3R isoform, read-out: H3R-445 α
[19] = molecular target: T2, H3R-415; assay: cell-based; settings: HEK293-EPAC stably expressing H3R isoform, read-out: H3R-415 α
[20] = molecular target: T3, H3R-365; assay: cell-based; settings: HEK293-EPAC stably expressing H3R isoform, read-out: H3R-365 α
[21] = molecular target: T3, H3R-365; assay: biochemical
[22] = molecular target: T1, H3R-445; assay: biochemical
[23] = molecular target: T2, H3R-415; assay: biochemical
[24] = molecular target: T4, H3R-453; parameters: species or system HEK293-EPAC stably expressing H3R isoform; settings: agonist
[25] = molecular target: T1, H3R-445; assay: cell-based; parameters: species or system HEK293-EPAC stably expressing H3R isoform
[26] = molecular target: T1, H3R-445; assay: cell-based; parameters: species or system HEK293-EPAC stably expressing H3R isoform; remark: listed apart in the source
[27] = molecular target: T2, H3R-415; assay: cell-based; parameters: species or system HEK293-EPAC stably expressing H3R isoform; remark: listed apart in the source
[28] = inverse agonism, pitolisant = -1, antagonist

Structure (SMILES) | EC50 [7] [nM] | H3R-373 pEC50 [9] [M] | Ki [12] [nM] | Ki [13] [nM] | Emax [4] [%] | Emax [5] [%] | Emax [6] [%] | Emax [8] [%] | Emax [10] [%] | Emax [11] [%] | further results
C[C@@H]1CCCN1CCc1cc2cc(-c3ccc(C#N)cc3)ccc2o1 [ABT-239, 4-[2-[2-[(2R)-2-methylpyrrolidin-1-yl]ethyl]-1-benzofuran-5-yl]benzonitrile] |  |  |  |  |  |  |  |  |  |  | Emax [1]: -100 ± 20%; Emax [2]: -50 ± 30%; Emax [3]: -110%
c1nc(CC2CCNCC2)c[nH]1 [Immepip] | 0.2 | 10.1 ± 0.2 |  |  |  |  |  |  |  |  | H3R-453 α [4]: 0.9 ± 0.1%; H3R-445 α [5]: 1.0 ± 0.0%; H3R-415 α [6]: 0.9 ± 0.1%; H3R-413 α [8]: 1.0 ± 0.0%; H3R-373 α [10]: 0.8 ± 0.2%; H3R-365 α [11]: 1.1 ± 0.1%
CN1CCC(Cc2c[nH]cn2)CC1 [Methimepip] | 0.631 |  |  |  |  |  |  |  |  |  | H3R-453 α [4]: 1.1 ± 0.2%; H3R-445 α [5]: 1.0 ± 0.2%; H3R-415 α [6]: 0.8 ± 0.1%; H3R-413 α [8]: 1.0 ± 0.1%; H3R-373 α [10]: 0.8 ± 0.1%; H3R-365 α [11]: 0.8 ± 0.4%
CCNC(=O)C1CC(F)(c2ccc(CN3CCCC3)c(F)c2)C1 (stereo not shown) [PF-3654746, N-ethyl-3-fluoro-3-[3-fluoro-4-(pyrrolidin-1-ylmethyl)phenyl]cyclobutane-1-carboxamide] |  |  | 126 | 5.01 |  |  |  |  |  |  | EC50 [14]: 0.501 nM; H3R-373 pEC50 [15]: 9.1 ± 0.4 M; EC50 [16]: 1 nM; Emax [1]: -120 ± 40%; Emax [2]: -110 ± 30%; Emax [3]: -100 ± 10%
C[C@@H](N)Cc1cnc[nH]1 [RAMH, (2R)-1-(3H-imidazol-4-yl)propan-2-amine] |  |  |  |  |  |  |  |  |  |  | Emax [17]: 140 ± 10%; Emax [18]: 100%; Emax [19]: 110 ± 40%; Emax [20]: 100 ± 20%
N=C(N)SCCCc1cnc[nH]1 [VUF8328, 3-(1H-imidazol-5-yl)propyl carbamimidothioate] |  | 9.0 ± 0.8 | 0.316 | 1.26 | 90 ± 40 | 80 ± 20 | 50 ± 20 | 80 ± 10 | 70 ± 30 | 70 ± 20 | Ki [21]: 0.794 nM; Ki [22]: 1.26 nM; Ki [23]: 1.58 nM
CCCNC1CN(c2ccnc(N)n2)C1 [VUF16839, 4-(3-(Propylamino)azetidin-1-yl)pyrimidin-2-amine] |  |  | 0.398 | 2 | 90 ± 30 | 90 | 50 ± 10 | 80 ± 20 | 60 ± 20 | 70 ± 20 | H3R-453 pEC50 [24]: 8.0 ± 0.1 M; EC50 [25]: 1 nM
O=C(c1ccc(CN2CCOCC2)cc1)N1CCN(C2CC2)CC1 [bavisant, (4-Cyclopropyl-piperazin-1-yl)-(4-morpholin-4-ylmethyl-phenyl)-methanone] |  |  | 79.4 | 2.51 |  |  |  |  |  |  | EC50 [26]: 1 nM; EC50 [14]: 0.794 nM; EC50 [16]: 3.98 nM; H3R-445 α [1, 28]: -1.0 ± 0,3%; H3R-415 α [2, 28]: -0.9 ± 0.0%; H3R-365 α [3, 28]: -1.0 ± 0.0%
N=C(NCc1ccc(Cl)cc1)SCCCc1c[nH]cn1 [clobenpropit, N’-[(4-chlorophenyl)methyl]-1-[3-(3H-imidazol-4-yl)propylsulfanyl]methanimidamide] |  |  |  |  |  |  |  |  |  |  | Emax [1]: -100 ± 30%; Emax [2]: -80%; Emax [3]: -80 ± 10%
CN(C)CCCCCc1c[nH]cn1 [dimethyl-impentamine, 5-(3H-imidazol-4-yl)-N,N-dimethylpentan-1-amine] | 79.4 | 7.9 ± 0.4 | 20 | 31.6 |  | 60 ± 20 | 40 ± 10 | 50 ± 20 | 70 ± 10 | 100 ± 20 | Ki [21]: 20 nM; Ki [22]: 25.1 nM; Ki [23]: 31.6 nM
NCCCCc1c[nH]cn1 [imbutamine, 4-(3H-imidazol-4-yl)butan-1-amine] |  | 9.5 ± 0.4 | 0.398 | 1.58 | 120 ± 30 | 100 ± 10 | 80 ± 10 | 90 | 80 ± 10 | 90 ± 30 | 
N=C(N)SCCc1cnc[nH]1 [imetit, 2-(3H-imidazol-4-yl)ethylsulfanylmethanimidamide] | 0.316 |  | 0.126 | 0.631 | 100 ± 30 | 90 ± 10 | 70 | 100 | 80 ± 30 | 110 ± 20 | 
c1cc(Cc2cnc[nH]2)ccn1 [immethridine, 4-(3H-imidazol-4-ylmethyl)pyridine] |  | 10.1 ± 0.7 | 0.1 | 0.398 | 110 ± 40 | 90 ± 20 | 70 ± 10 | 100 ± 10 | 90 ± 10 | 110 ± 50 | 
c1ccc(COCCCc2c[nH]cn2)cc1 [proxyfan, 4-[3-(phenylmethoxy)propyl]-3H-imidazole] | 31.6 | 8.0 ± 0.0 | 1 | 5.01 | 100 ± 20 | 90 ± 10 | 70 ± 10 | 90 ± 10 | 80 ± 10 | 100 ± 10 | H3R-453 pEC50 [24]: 7.2 ± 0.4 M; EC50 [25]: 7.94 nM; EC50 [27]: 15.8 nM
S=C(NC1CCCCC1)N1CCC(c2c[nH]cn2)CC1 [thioperamide, N-cyclohexyl-4-(3H-imidazol-4-yl)piperidine-1-carbothioamide] |  |  |  |  |  |  |  |  |  |  | Emax [1]: -90 ± 10%; Emax [2]: -80 ± 80%; Emax [3]: -100%

Reference: article doi:10.1101/2023.12.06.570349v1 (biorxiv, 2023)
